Measurements reported in PMC10239507, “Development of allosteric and selective CDK2 inhibitors for contraception with negative cooperativity to cyclin binding” (Nature Communications, 2023).

Columns and labels:
Assay in all cases: biochemical
[1] = target: T1, 371 kinases (kinase named in each endpoint) (Homo sapiens, UniProt Q9HBH9); details: MNK2
T1 construct: purchased Reaction Biology

[2] = target: T2, 371 kinases (kinase named in each endpoint) (Homo sapiens, UniProt O43318); details: TAK1
T2 construct: purchased Reaction Biology

[3] = target: T3, 371 kinases (kinase named in each endpoint) (Homo sapiens, UniProt P54762); details: EPHB1
T3 construct: purchased Reaction Biology

[4] = target: T4, 371 kinases (kinase named in each endpoint) (Homo sapiens, UniProt Q9NRM7); details: LATS2
T4 construct: purchased Reaction Biology

[5] = target: T5, 371 kinases (kinase named in each endpoint) (Homo sapiens, UniProt Q9HBY8); details: SGK2
T5 construct: purchased Reaction Biology

[6] = target: T6, 371 kinases (kinase named in each endpoint) (Homo sapiens, UniProt O75914); details: PAK3
T6 construct: purchased Reaction Biology

[7] = target: T7, 371 kinases (kinase named in each endpoint) (Homo sapiens, UniProt P53671); details: LIMK2
T7 construct: purchased Reaction Biology

[8] = target: T8, 371 kinases (kinase named in each endpoint) (Homo sapiens, UniProt Q16832); details: DDR2
T8 construct: purchased Reaction Biology
T8 sequence (Q16832 22-855): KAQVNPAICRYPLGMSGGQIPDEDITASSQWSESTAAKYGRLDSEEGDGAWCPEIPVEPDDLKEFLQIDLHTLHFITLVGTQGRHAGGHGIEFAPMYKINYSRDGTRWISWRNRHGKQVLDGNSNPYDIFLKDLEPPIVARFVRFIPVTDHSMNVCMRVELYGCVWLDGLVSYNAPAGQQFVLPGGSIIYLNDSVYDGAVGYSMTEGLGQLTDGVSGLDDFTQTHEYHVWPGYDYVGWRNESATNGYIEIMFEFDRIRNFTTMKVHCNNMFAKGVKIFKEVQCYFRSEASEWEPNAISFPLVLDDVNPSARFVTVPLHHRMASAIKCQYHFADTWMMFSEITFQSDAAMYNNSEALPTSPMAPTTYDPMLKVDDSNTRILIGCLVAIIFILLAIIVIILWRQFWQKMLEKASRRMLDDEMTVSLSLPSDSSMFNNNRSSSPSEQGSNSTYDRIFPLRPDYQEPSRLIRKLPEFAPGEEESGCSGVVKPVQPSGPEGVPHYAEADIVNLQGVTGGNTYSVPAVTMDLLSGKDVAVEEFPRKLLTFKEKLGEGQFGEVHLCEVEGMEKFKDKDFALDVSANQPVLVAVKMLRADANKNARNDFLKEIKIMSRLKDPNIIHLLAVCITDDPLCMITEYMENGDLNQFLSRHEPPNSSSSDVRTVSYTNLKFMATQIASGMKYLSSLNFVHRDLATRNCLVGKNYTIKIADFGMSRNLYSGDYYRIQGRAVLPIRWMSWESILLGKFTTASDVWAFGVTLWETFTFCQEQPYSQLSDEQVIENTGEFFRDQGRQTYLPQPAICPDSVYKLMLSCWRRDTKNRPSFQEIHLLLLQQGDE

T3 sequence (P54762 18-984): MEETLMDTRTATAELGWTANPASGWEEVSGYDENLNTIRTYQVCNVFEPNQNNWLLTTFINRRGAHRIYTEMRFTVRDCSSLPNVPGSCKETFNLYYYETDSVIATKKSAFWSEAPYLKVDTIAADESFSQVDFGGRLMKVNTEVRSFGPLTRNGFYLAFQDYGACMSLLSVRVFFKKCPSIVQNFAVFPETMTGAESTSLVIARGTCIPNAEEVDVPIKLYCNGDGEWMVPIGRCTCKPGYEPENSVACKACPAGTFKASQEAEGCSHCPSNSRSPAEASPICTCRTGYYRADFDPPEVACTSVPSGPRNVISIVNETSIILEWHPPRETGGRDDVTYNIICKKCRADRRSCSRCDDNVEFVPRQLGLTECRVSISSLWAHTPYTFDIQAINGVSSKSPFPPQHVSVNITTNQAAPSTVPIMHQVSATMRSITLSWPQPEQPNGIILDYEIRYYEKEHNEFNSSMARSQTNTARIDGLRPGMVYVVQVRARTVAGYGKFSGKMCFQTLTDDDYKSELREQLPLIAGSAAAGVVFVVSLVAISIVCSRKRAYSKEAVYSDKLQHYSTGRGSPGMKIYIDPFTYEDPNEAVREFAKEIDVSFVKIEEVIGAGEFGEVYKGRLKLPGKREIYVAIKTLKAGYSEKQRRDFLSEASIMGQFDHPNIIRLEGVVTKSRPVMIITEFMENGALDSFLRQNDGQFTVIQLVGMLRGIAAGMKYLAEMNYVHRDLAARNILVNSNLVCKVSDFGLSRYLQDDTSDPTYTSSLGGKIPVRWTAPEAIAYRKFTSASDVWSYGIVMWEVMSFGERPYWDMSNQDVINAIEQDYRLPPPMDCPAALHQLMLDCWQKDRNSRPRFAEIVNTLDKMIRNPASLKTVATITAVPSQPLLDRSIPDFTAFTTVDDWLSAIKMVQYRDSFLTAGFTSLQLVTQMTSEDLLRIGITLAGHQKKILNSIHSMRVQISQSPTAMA
T7 sequence (P53671 whole entry): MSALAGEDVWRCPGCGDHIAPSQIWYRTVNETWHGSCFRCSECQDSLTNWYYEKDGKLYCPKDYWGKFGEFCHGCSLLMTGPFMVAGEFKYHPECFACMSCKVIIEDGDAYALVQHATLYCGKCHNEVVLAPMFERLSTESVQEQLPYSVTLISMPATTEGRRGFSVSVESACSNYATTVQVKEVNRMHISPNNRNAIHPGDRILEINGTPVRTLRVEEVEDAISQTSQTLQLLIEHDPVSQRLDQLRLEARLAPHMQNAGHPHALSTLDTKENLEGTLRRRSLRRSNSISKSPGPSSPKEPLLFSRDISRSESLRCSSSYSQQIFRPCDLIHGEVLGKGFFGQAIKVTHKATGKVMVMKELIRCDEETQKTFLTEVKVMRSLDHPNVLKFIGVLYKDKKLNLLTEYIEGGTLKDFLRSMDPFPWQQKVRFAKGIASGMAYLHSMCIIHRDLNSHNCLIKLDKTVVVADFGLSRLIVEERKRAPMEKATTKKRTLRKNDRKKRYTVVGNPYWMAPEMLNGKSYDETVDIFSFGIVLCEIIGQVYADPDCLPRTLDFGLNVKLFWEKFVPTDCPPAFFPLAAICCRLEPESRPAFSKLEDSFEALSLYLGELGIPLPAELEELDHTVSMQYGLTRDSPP
T6 sequence (O75914 whole entry): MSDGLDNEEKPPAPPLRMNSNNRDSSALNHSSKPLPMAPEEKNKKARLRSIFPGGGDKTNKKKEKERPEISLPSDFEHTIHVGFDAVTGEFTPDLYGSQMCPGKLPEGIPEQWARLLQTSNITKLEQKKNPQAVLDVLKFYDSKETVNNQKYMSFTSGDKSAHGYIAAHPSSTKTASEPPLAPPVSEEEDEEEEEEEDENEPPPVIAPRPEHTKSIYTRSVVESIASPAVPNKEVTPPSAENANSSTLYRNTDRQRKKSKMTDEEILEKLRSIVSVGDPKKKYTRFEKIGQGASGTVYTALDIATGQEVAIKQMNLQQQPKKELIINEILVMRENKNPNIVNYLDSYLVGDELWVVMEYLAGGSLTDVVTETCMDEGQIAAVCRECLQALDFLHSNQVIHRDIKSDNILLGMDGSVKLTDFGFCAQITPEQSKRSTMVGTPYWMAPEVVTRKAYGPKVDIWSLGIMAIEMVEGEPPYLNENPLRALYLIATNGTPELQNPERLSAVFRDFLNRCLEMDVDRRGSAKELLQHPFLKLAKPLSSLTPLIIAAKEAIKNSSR
T5 sequence (Q9HBY8 whole entry): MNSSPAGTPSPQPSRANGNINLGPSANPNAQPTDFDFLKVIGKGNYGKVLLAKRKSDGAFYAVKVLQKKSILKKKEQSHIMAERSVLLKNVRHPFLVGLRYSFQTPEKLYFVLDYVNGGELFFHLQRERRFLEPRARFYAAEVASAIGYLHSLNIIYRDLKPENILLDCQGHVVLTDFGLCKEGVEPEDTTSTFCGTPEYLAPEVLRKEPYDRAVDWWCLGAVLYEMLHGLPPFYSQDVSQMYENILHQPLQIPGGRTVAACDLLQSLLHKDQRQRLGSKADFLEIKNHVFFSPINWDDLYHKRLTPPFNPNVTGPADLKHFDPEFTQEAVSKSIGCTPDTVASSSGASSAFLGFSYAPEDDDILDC
T4 sequence (Q9NRM7 whole entry): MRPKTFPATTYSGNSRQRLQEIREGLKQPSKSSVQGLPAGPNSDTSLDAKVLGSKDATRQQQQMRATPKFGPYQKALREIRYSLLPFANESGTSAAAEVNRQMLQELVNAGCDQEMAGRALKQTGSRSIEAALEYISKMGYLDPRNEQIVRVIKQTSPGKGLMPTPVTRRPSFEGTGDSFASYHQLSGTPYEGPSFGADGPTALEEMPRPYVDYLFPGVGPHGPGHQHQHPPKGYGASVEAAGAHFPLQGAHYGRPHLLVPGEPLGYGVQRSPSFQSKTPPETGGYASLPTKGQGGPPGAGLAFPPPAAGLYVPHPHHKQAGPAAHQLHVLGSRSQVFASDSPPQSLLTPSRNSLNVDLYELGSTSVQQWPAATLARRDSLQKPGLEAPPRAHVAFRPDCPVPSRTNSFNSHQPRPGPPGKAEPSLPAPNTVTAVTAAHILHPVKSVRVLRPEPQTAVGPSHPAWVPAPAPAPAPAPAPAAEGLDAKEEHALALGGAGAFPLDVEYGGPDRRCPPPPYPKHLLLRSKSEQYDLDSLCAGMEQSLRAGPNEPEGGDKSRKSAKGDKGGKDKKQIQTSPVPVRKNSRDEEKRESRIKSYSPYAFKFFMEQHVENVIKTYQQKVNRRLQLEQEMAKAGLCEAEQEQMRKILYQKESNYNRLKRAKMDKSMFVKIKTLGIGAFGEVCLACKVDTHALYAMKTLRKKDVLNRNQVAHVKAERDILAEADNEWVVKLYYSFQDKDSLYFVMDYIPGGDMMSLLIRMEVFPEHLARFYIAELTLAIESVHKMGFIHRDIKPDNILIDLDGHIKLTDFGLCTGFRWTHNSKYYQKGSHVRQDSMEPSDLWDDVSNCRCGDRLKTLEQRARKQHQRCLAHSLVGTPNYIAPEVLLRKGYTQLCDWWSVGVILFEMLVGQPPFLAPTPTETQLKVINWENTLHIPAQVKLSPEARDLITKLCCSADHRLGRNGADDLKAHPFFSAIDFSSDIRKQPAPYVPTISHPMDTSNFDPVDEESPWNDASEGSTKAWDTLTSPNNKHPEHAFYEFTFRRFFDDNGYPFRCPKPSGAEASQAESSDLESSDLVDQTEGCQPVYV
T2 sequence (O43318 whole entry): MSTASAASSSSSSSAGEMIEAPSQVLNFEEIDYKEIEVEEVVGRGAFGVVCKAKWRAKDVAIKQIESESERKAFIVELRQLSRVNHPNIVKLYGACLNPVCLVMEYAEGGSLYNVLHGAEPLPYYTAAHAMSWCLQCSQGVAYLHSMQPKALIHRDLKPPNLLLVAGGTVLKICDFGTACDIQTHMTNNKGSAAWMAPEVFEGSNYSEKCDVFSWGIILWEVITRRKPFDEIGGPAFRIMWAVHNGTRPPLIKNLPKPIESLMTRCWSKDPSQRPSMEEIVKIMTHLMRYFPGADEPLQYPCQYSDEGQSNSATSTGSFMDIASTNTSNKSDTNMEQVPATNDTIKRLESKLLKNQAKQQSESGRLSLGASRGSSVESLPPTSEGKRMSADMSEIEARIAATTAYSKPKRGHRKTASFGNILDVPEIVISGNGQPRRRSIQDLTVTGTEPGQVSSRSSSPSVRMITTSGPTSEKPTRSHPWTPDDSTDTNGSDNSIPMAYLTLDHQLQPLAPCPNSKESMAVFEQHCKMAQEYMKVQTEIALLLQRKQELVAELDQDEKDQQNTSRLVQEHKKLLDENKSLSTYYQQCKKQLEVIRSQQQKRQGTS

## O=C(O)c1cc(C(F)(F)F)ccc1NCCc1c[nH]c2cc(Br)ccc12 [Compound 5, 2-((2-(6-Bromo-1H-indol-3-yl)ethyl)amino)−5-(trifluoromethyl)benzoic Acid]
[1]
  activity at 10 µM: 93.3 ± 1.9%
[2]
  activity at 10 µM: 92.1 ± 0.7%
[3]
  activity at 10 µM: 91.2%
[4]
  activity at 10 µM: 79.1 ± 1.6%
[5]
  activity at 10 µM: 63.9 ± 2%
[6]
  activity at 10 µM: 84 ± 0.9%
[7]
  activity at 10 µM: 75.1 ± 1.7%
[8]
  activity at 10 µM: 103 ± 3.6%
